Values of other authors, collected in US11129837B2, “Salicylate compound composition” (Innovate Pharmaceuticals Limited, priority 2014, dated 2021).

What was measured:
[1] = test system: PGE2 synthesis in C6 cells; settings: high and low dose
cancer = settings: daily aspirin
[2] = human patients
colorectal cancer = settings: daily ingestion over an 8-10 year period, at any dose
[3] = test system: malignant glioblastoma RG2 cells; settings: administered the day before tumour cell inoculation and in established tumours
rat stomachs = settings: for effect on PGE2: given either orally or subcutaneously
glioma stem cells = settings: versus normal glial cells or neural stem cells

| Structure (SMILES) | PGE2 synthesis [1] | reduction of cancer mortality (cancer) | maximum tolerated dose [2] | reduction of CRC-associated mortality (colorectal cancer) | reduction of the risk of colorectal cancer (colorectal cancer) | growth of RG2 glioblastoma cells in rat [3] | effect on PGE2 (rat stomachs) | gastric damage (rat stomachs; given orally or subcutaneously) | apoptosis (A172 glioblastoma cells) | growth of glioma stem cells in culture (glioma stem cells) |
| --- | --- | --- | --- | --- | --- | --- | --- | --- | --- | --- |
| CC(=O)Oc1ccccc1C(=O)O [aspirin, 2-(acetoxy)benzoic acid] | directly inhibited PGE2 synthesis | around 20% | about 4 g | 35% | 24% | significantly inhibited the growth | decrease PGE2 | only caused damage when given orally | induced significant apoptosis |  |
| CC(=O)OCC(COC(C)=O)OC(C)=O [Glycerin triacetate, 1,3-Diacetyloxypropan-2-yl acetate] |  |  |  |  |  |  |  |  |  | slowing the growth |
| COc1ccc2c(c1)c(CC(=O)O)c(C)n2C(=O)c1ccc(Cl)cc1 [Indomethacin] |  |  |  |  |  |  | decrease PGE2 |  |  |  |
